{"source": "patent US7049490B2", "about": "“Gibberellin 3β-hydroxylase genes of rice and uses thereof” (priority 1999, dated 2006)", "key": {"Os3β-1 fusion protein": {"biological_target": "T1, Os3β-1 fusion protein (Oryza sativa subsp. japonica, UniProt Q6AT12, A27T/D23H/DEL15-17/DUP228-228)", "T1 construct": "a full-length cDNA is synthesized by RT-PCR using primers provided with restriction enzyme sites and subcloned into multi-cloning sites of the pMAL-c2 expression vector; made in house; host or cells: E. coli JM109", "T1 sequence (Q6AT12 other isoform, or with tags, fused parts or gaps DEL15-17/D23H/A27T/DUP228-228)": "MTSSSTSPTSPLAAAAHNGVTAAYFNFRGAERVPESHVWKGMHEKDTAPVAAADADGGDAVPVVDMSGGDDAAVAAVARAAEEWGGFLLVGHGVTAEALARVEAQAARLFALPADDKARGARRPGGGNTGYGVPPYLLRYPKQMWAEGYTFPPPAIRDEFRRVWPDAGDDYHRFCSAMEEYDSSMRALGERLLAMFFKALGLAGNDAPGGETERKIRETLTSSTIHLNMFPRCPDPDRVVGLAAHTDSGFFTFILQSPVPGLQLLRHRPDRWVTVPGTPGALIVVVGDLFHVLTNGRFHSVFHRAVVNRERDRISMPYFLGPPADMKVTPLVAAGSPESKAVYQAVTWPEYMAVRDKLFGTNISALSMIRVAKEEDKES", "assay": "Enzymatic activity assay of recombinant Os3β-1 fusion protein with gibberellin substrates, products identified by GC-MS", "assay_type": "biochemical, rice (Oryza sativa)", "details": "E. coli supernatant with Os3β-1 fusion protein, cofactors ascorbate, ferrous iron, 2-ketoglutarate", "method": "(§1) cDNAs for the predicted protein-coding regions of the Os3β-1 and Os3β-2 genes were each inserted into the pMAL-c2 expression vector (New England Biolabs, Beverly, Mass.) in the sense orientation to obtain a fusion translation product. The constructs thus obtained, pMAL-Os3β-1 and pMAL-Os3β-2, were expressed in E. coli strain JM109. Bacterial cells were cultured by shaking in 2×YT medium containing 100 mg/L ampicillin at 37° C. overnight. Then, the culture was diluted 100-fold with a fresh 2×YT medium containing 100 mg/L ampicillin, and further cultured with shaking at 30° C. Four hours later, IPTG was added to the culture to a final concentration of 1 mM, and the mixture was incubated with shaking at 17° C. for further 18 h. After the completion of culturing, the bacterial cells were collected, washed with a washing buffer (containing 50 mM Tris-HCl (pH 8.0), 10% (w/v) glycerol, and 2 mM DTT), suspended in the washing buffer containing lysozyme (1 mg/ml), and allowed to stand for 30 min on ice.\n(§2) The cell lysate thus obtained was sonicated, centrifuged, and the supernatant was subjected to SDS-PAGE to confirm the expression of the fusion protein. For the assay of enzymatic activity of the Os3β-1 fusion protein, the supernatant was incubated with various gibberellins and cofactors (ascorbate, ferrous iron, and 2-ketoglutarate). For the activity assay of the Os3β-2 fusion protein, the supernatant was purified on a column of amylose resin according to the method described in the manual, and the purified protein thus obtained was similarly incubated as described above. Metabolized gibberellins were identified using GC-MS."}, "Os3β-2 fusion protein": {"biological_target": "T2, Os3β-2 fusion protein (Oryza sativa subsp. japonica, UniProt Q9FU53, G53R)", "T2 construct": "a full-length cDNA is synthesized by RT-PCR using primers provided with restriction enzyme sites and subcloned into multi-cloning sites of the pMAL-c2 expression vector; made in house; host or cells: E. coli JM109", "T2 sequence (Q9FU53 whole entry G53R, the tested form may be a part)": "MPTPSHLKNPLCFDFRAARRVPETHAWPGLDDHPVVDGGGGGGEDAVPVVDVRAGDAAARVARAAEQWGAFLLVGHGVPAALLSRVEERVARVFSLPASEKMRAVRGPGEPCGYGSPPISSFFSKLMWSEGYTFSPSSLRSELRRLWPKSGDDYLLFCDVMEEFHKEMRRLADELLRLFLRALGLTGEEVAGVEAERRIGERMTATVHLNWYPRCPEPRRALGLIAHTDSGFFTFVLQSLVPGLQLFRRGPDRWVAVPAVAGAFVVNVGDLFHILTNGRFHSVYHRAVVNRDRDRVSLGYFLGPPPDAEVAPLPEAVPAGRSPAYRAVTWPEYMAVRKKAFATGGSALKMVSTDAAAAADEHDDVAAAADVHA", "assay": "Enzymatic activity assay of purified recombinant Os3β-2 fusion protein with gibberellin substrates, products identified by GC-MS", "assay_type": "biochemical, rice (Oryza sativa)", "details": "amylose-resin purified Os3β-2 fusion protein, cofactors ascorbate, ferrous iron, 2-ketoglutarate", "method": "as §1, §2"}}, "note": "Entries after “also recorded” stand apart in the source; their conditions may differ.", "data": [{"smiles": "C=C1C[C@]23C[C@@]1(O)CC[C@H]2[C@@]12CC=C[C@@](C)(C(=O)O1)[C@H]2[C@@H]3C(=O)O", "note": "[GA5]", "values": [{"measurement": "Metabolized gibberellins (reaction products) from the substrate", "setting": "Os3β-1 fusion protein", "value": "only the corresponding 3β-hydroxylated gibberellins (GA3 and GA88) were obtained; also recorded: produced the corresponding 3β-hydroxylated gibberellins, GA3 and GA88, respectively"}, {"measurement": "Metabolized gibberellins (reaction products) from the substrate", "setting": "Os3β-2 fusion protein", "value": "produced the corresponding 3β-hydroxylated gibberellins (GA3, GA4, GA1, and GA38); also recorded: production of the corresponding 3β-hydroxylated gibberellins, GA3, GA4, GA1, and GA38, respectively"}]}, {"smiles": "C=C1C[C@]23C[C@H]1CC[C@H]2[C@@]12CCC[C@@](C)(C(=O)O1)[C@H]2[C@@H]3C(=O)O", "note": "[GA9]", "values": [{"measurement": "Metabolized gibberellins (reaction products) from the substrate", "setting": "Os3β-1 fusion protein", "value": "synthesis of GA4 (3β-hydroxylation), GA7 (2,3-unsaturation and 3β-hydroxylation), and GA34 (2β-hydroxylation) were confirmed; also recorded: catalyzed the production of GA4 (3β-hydroxylation), GA7 (2,3-unsaturation and 3β-hydroxylation), and GA34 (2β-hydroxylation)"}, {"measurement": "Metabolized gibberellins (reaction products) from the substrate", "setting": "Os3β-2 fusion protein", "value": "produced the corresponding 3β-hydroxylated gibberellins (GA3, GA4, GA1, and GA38); also recorded: production of the corresponding 3β-hydroxylated gibberellins, GA3, GA4, GA1, and GA38, respectively"}]}, {"smiles": "C=C1C[C@]23C[C@@]1(O)CC[C@H]2[C@@]12CCC[C@@](C)(C(=O)O1)[C@H]2[C@@H]3C(=O)O", "note": "[GA20]", "values": [{"measurement": "Metabolized gibberellins (reaction products) from the substrate", "setting": "Os3β-2 fusion protein", "value": "produced the corresponding 3β-hydroxylated gibberellins (GA3, GA4, GA1, and GA38); also recorded: production of the corresponding 3β-hydroxylated gibberellins, GA3, GA4, GA1, and GA38, respectively"}]}, {"smiles": "C=C1C[C@]23C[C@@]1(O)CC[C@H]2[C@@]12CCC[C@@](C)(C(=O)OC1)[C@H]2[C@@H]3C(=O)O", "note": "[GA44]", "values": [{"measurement": "Metabolized gibberellins (reaction products) from the substrate", "setting": "Os3β-1 fusion protein", "value": "only the corresponding 3β-hydroxylated gibberellins (GA3 and GA88) were obtained; also recorded: produced the corresponding 3β-hydroxylated gibberellins, GA3 and GA88, respectively"}, {"measurement": "Metabolized gibberellins (reaction products) from the substrate", "setting": "Os3β-2 fusion protein", "value": "produced the corresponding 3β-hydroxylated gibberellins (GA3, GA4, GA1, and GA38); also recorded: production of the corresponding 3β-hydroxylated gibberellins, GA3, GA4, GA1, and GA38, respectively"}]}]}
